According to patent US20020026053A1, “Novel 3-(substituted) -2- indolinones compounds and use thereof as inhibitors of protein kinase activity” (priority 1997, published 2002):

Target: T1, EGFR (Homo sapiens, UniProt P00533)
T1 construct: endogenous in cells; host or cells: A431 cells (lysate, captured with SUMO1 anti-EGFR antibody)
Experiment: Biochemical EGFR Assay
Set-up: concentration or dose not given beside the values
Settings: protocol P.167
How it was run: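 Readout is ABTS absorbance at 410 nm after anti-phosphotyrosine and HRP-antibody detection of EGFR autophosphorylation. The kinase was immunocaptured from A431 lysate, exposed 30 min to test compound diluted 1:10 in TBS, then phosphorylated for 5 min with ATP/MnCl2 before an EDTA stop.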

T1 sequence (P00533 25-1210): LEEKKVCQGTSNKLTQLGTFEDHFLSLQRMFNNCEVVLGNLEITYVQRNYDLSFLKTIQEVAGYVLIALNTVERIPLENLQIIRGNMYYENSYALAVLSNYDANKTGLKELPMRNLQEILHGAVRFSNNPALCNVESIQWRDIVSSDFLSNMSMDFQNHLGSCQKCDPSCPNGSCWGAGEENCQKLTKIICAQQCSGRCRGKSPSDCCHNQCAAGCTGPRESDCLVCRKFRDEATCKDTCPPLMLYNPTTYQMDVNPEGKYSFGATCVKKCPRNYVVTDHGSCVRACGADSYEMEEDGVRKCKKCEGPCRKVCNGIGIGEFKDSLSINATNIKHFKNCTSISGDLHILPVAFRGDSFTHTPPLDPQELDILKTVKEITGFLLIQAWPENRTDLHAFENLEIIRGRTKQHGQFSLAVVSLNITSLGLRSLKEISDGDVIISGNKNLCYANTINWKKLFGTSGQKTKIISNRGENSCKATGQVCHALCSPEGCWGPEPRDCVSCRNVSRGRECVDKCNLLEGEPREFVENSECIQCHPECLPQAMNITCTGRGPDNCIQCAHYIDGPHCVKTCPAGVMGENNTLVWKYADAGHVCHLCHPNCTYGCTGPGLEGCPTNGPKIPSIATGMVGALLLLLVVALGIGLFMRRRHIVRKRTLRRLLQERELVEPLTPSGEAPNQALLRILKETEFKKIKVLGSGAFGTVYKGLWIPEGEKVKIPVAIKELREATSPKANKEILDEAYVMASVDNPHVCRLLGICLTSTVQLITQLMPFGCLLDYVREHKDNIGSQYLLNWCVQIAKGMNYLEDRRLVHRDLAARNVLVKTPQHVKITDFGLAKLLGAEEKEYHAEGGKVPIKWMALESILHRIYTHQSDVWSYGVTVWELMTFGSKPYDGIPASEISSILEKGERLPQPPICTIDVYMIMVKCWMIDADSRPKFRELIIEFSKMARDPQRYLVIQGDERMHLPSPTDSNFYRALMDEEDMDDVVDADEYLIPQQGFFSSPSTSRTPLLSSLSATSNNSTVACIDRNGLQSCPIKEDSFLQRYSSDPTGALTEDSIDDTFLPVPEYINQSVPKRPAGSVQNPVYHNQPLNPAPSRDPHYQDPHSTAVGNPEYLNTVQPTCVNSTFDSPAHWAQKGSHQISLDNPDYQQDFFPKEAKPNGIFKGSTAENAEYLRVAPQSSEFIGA

| SMILES | Biochem EGFR % Inhibition (P.167) |
| --- | --- |
| Cc1c(Br)cc(Br)c2c1C(=Cc1cc(O)c(O)c(O)c1)C(=O)N2 [10739/H07] | 10.9% |
| COc1ccc(Oc2cccc(C=C3C(=O)Nc4c(Br)cc(Br)c(C)c43)c2)cc1 [10739/H08] | −28.5% |
| Cc1c(Br)cc(Br)c2c1C(=Cc1ccoc1)C(=O)N2 [10739/H10] | −26.6% |
